The record followed here is PubChem BioAssay AID1259407 (Chemical Carcinogenesis Research Information System (CCRIS), 2018).

In this series the test system is CCRIS mutagenicity, Ames/micronucleus/aberration tests. As to the kind of experiment: CCRIS mutagenicity studies. To be noted: Test System: AMES SALMONELLA TYPHIMURIUM
Setting [1] is: Strain/Indicator: TA98, Metabolic Activation: NONE, Method: STANDARD PLATE.
[2] abbreviates: Strain/Indicator: TA100, Metabolic Activation: NONE, Method: STANDARD PLATE.
The mark [3] stands for this setting: Strain/Indicator: TA98, Metabolic Activation: NONE, Method: PREINCUBATION
The mark [4] stands for this setting: Strain/Indicator: TA100, Metabolic Activation: NONE, Method: PREINCUBATION

Active and inactive are the calls of the source. How the calls were made is not given here.

`CC(C)(C)c1cc(-c2ccccc2)ccc1[N+](=O)[O-]`: the mutagenic call was “inactive; negative” under setting [1]; “inactive; negative” (Strain/Indicator: TA98, Metabolic Activation: S-9, Method: STANDARD PLATE); “inactive; negative” under setting [2]; “inactive; negative” (Strain/Indicator: TA100, Metabolic Activation: S-9, Method: STANDARD PLATE).
Take `CCCCC1C(=O)N(c2ccccc2)N(c2ccc(O)cc2)C1=O` (configuration not stated): the mutagenic call by setting is: (Strain/Indicator: TA97A, Metabolic Activation: NONE, Method: STANDARD PLATE) “inactive; negative”; (Strain/Indicator: TA97A, Metabolic Activation: RAT LIVER S-9, PHENOBARBITAL, Method: STANDARD PLATE) “inactive; negative”; (Strain/Indicator: TA98, Metabolic Activation: GUINEA PIG, LIVER, S-9, PCB, Method: PREINCUBATION) “inactive; negative”; (Strain/Indicator: TA98, Metabolic Activation: HAMSTER, LIVER, S-9, PCB, Method: PREINCUBATION) “inactive; negative”; (Strain/Indicator: TA98, Metabolic Activation: MOUSE, LIVER, S-9, PCB, Method: PREINCUBATION) “inactive; negative”; under setting [3], “inactive; negative”. In addition, the mutagenic call by setting is: under setting [1], “inactive; negative”; (Strain/Indicator: TA98, Metabolic Activation: RAT LIVER S-9, PHENOBARBITAL, Method: STANDARD PLATE) “inactive; negative”; (Strain/Indicator: TA98, Metabolic Activation: RAT, LIVER, S-9, PCB, Method: PREINCUBATION) “inactive; negative”; (Strain/Indicator: TA100, Metabolic Activation: GUINEA PIG, LIVER, S-9, PCB, Method: PREINCUBATION) “inactive; negative”; (Strain/Indicator: TA100, Metabolic Activation: HAMSTER, LIVER, S-9, PCB, Method: PREINCUBATION) “inactive; negative”; (Strain/Indicator: TA100, Metabolic Activation: MOUSE, LIVER, S-9, PCB, Method: PREINCUBATION) “inactive; negative”. Besides, the mutagenic call is, setting by setting: under setting [4], “inactive; negative”; under setting [2], “inactive; negative”; (Strain/Indicator: TA100, Metabolic Activation: RAT LIVER S-9 PHENOBARBITAL, Method: STANDARD PLATE) “inactive; negative”; (Strain/Indicator: TA100, Metabolic Activation: RAT, LIVER, S-9, PCB, Method: PREINCUBATION) “active; positive”; (Strain/Indicator: TA102, Metabolic Activation: NONE, Method: STANDARD PLATE) “inactive; negative”; (Strain/Indicator: TA102, Metabolic Activation: RAT LIVER S-9, PHENOBARBITAL, Method: STANDARD PLATE) “inactive; negative”.
With `CCCCOP(=O)(OCCCC)Oc1ccccc1`, the mutagenic call is “inactive; negative” (Strain/Indicator: TA97, Metabolic Activation: HAMSTER, LIVER, S-9, AROCLOR 1254 (10%), Method: PREINCUBATION); “inactive; negative” (Strain/Indicator: TA97, Metabolic Activation: HAMSTER, LIVER, S-9, AROCLOR 1254 (30%), Method: PREINCUBATION); “inactive; negative” (Strain/Indicator: TA97, Metabolic Activation: NONE, Method: PREINCUBATION); “inactive; negative” (Strain/Indicator: TA97, Metabolic Activation: RAT, LIVER, S-9, AROCLOR 1254 (10%), Method: PREINCUBATION); “inactive; negative” (Strain/Indicator: TA97, Metabolic Activation: RAT, LIVER, S-9, AROCLOR 1254 (30%), Method: PREINCUBATION); “inactive; negative” (Strain/Indicator: TA98, Metabolic Activation: HAMSTER, LIVER, S-9, AROCLOR 1254 (10%), Method: PREINCUBATION). Moreover, the mutagenic call by setting is: (Strain/Indicator: TA98, Metabolic Activation: HAMSTER, LIVER, S-9, AROCLOR 1254 (30%), Method: PREINCUBATION) “inactive; negative”; under setting [3], “inactive; negative”; (Strain/Indicator: TA98, Metabolic Activation: RAT, LIVER, S-9, AROCLOR 1254 (10%), Method: PREINCUBATION) “inactive; negative”; (Strain/Indicator: TA98, Metabolic Activation: RAT, LIVER, S-9, AROCLOR 1254 (30%), Method: PREINCUBATION) “inactive; negative”; (Strain/Indicator: TA100, Metabolic Activation: HAMSTER, LIVER, S-9, AROCLOR 1254 (10%), Method: PREINCUBATION) “inactive; negative”; (Strain/Indicator: TA100, Metabolic Activation: HAMSTER, LIVER, S-9, AROCLOR 1254 (30%), Method: PREINCUBATION) “inactive; negative”. Further, the mutagenic call is, setting by setting: under setting [4], “inactive; negative”; (Strain/Indicator: TA100, Metabolic Activation: RAT, LIVER, S-9, AROCLOR 1254 (10%), Method: PREINCUBATION) “inactive; negative”; (Strain/Indicator: TA100, Metabolic Activation: RAT, LIVER, S-9, AROCLOR 1254 (30%), Method: PREINCUBATION) “inactive; negative”; (Strain/Indicator: TA1535, Metabolic Activation: HAMSTER, LIVER, S-9, AROCLOR 1254 (10%), Method: PREINCUBATION) “inactive; negative”; (Strain/Indicator: TA1535, Metabolic Activation: HAMSTER, LIVER, S-9, AROCLOR 1254 (30%), Method: PREINCUBATION) “inactive; negative”; (Strain/Indicator: TA1535, Metabolic Activation: NONE, Method: PREINCUBATION) “inactive; negative”. In addition, the mutagenic call runs as follows: (Strain/Indicator: TA1535, Metabolic Activation: RAT, LIVER, S-9, AROCLOR 1254 (10%), Method: PREINCUBATION) “inactive; negative”; (Strain/Indicator: TA1535, Metabolic Activation: RAT, LIVER, S-9, AROCLOR 1254 (30%), Method: PREINCUBATION) “inactive; negative”.
